These results are taken from patent US6359129B1, “Amino acid-derived, 7-membered cyclic sulfamides and methods of synthesizing the same” (University of Kansas, priority 2000, dated 2002).

What is called inhibition is the percentage by which the read-out fell short of the control.

Common to all, as to format: biochemical
The target in assay [1] is Herpes Simplex Virus Protease (Human herpesvirus 1, UniProt P10210). The assay can be described thus: Inhibition of Herpes Simplex Virus Protease. To be noted: compound tested at 200 μmolar. On the procedure: The inhibition of Herpes Simplex Virus Protease by the compound shown in Scheme R was determined according to the procedure described by Waxman et al., Antiviral Chemistry and Chemotherapy, 11:1-22 (1999); Qiu et al., Proteases of Infectious Agents, Academic Press, 93-115 (1999); and U.S. Pat. No. 6,008,033, each incorporated by reference herein.
The compound was tested at a concentration of 200 μmolar. [drawing 25]

The target in the next assay is T1, HIV protease (Human immunodeficiency virus type 1 group M subtype B, UniProt P04585).
T1 construct: a key virally encoded protease enzyme of the pol gene
The assay can be described thus: Inhibition of HIV protease. To be noted: compound at 99 μmolar. On the procedure: The inhibition of HIV protease by the compounds shown in Scheme S (99 μmolar), Scheme T (99 μmolar), and Scheme U (99 μmolar) was determined following the procedure described by Maschera et al., Human Immunodeficiency Virus: Mutations in the Viral Protease that Confer Resistance to Saquinavir Increase the Dissociation Rate Constant for the Protease-Saquinavir Complex, J. Biol. Chem., 271:33231-35 (1996), incorporated by reference herein. [drawing 26] [drawing 27] [drawing 28]

In the next assay the target is T2, human cathepsin K (Homo sapiens, UniProt P43235).
T2 sequence (P43235 115-329): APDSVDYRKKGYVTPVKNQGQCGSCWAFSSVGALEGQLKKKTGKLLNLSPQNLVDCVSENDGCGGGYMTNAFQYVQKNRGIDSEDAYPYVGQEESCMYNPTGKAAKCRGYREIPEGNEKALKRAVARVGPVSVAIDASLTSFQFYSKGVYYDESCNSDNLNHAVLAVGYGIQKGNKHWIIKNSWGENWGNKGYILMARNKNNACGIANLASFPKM
The assay can be described thus: Inhibition of human cathepsin K (fluorogenic peptide assay). As to conditions: compound at 106 μmolar; pH 5.5, 10 μmolar peptide, 32° C. On the procedure:
The inhibition of human cathepsin K by the compounds shown in Schemes V (106 μmolar) and W (106 μmolar) was determined. [drawing 29] [drawing 30]
The peptides utilized were chromophoric Z-Phe-Arg-pNA*HCl and fluorogenic Z-Phe-Arg-AMC (each available from BACHEM Bioscience, Inc.). Stock solutions were prepared with 100% dimethylsulfoxide (DMSO) and stored at −20° C.
The final assay conditions were 100 mM NaOAc, pH of 5.5, 10 mM (R,R)-dithiothreitol (DTT), 10% DMSO, 120 mM NaCl, 10 μmolar of the peptide, and 12.5-0.012 μmolar inhibitor in twofold serial dilutions from 20× stocks in 100% DMSO. The enzyme working solution was a 1:3000 dilution of […] human cathepsin K into 100 mM of NaOAc, pH of 5.5, 10 mM DTT, 1.2 M NaCl.
Serial dilutions were performed in 100% DMSO. Columns 2-12 of an intermediate plate were filled with […] of 100% DMSO and column 1 was filled with […]. Next, […] of a 10 mM solution was added to column 1. […] The fluorescence was monitored every 6 minutes for 72 minutes using a CytoFluor Series 4000 PerSeptive Biosystems multi-well fluorescence plate reader with the following settings: gain=50; 20 reads/well; 32° C.; lex=360±20 nm; and lem=440±20 nm.

Sequence of Herpes Simplex Virus Protease (P10210 1-247): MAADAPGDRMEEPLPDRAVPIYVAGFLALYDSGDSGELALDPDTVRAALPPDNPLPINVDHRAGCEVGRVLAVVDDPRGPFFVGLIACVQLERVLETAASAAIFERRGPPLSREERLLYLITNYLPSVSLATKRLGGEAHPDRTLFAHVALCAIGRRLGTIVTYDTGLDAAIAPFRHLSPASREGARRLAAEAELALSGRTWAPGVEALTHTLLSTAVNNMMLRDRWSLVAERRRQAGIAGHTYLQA

Regarding `COC(=O)C(Cc1ccccc1)N1CC(O)C(O)CN(Cc2ccccc2)S1(=O)=O` (stereo not drawn) [Scheme R], at 200 µM the inhibition in assay [1] was 20.5%.

Molecule `CC(C)CC(COCc1ccccc1)N1CC=CCN(C(COCc2ccccc2)CC(C)C)S1(=O)=O` (stereo not drawn) [Scheme S] returned an inhibition at 99 µM against HIV protease of 96%.

`COC(=O)C(Cc1ccccc1)N1CC(O)C(O)CN(C(Cc2ccccc2)C(=O)OC)S1(=O)=O` (stereo not drawn) [Scheme T] displayed an inhibition at 99 µM against HIV protease of 22%.

On HIV protease, `COC(=O)C(Cc1ccccc1)N1CC(O)C(O)CN(Cc2ccccc2)S1(=O)=O` (stereo not drawn) [Scheme U] came in with an inhibition at 99 µM of 21%.

With `CC(C)CC(COCc1ccccc1)N1CC=CCN(C(COCc2ccccc2)CC(C)C)S1(=O)=O` (stereo not drawn) [Scheme V], on human cathepsin K, the inhibition at 106 µM amounted to 20%.

The molecule `CC(C)CC(C(=O)NO)N1CC=CCN(C(CC(C)C)C(=O)NO)S1(=O)=O` (stereo not drawn) [Scheme W] came in with an inhibition at 106 µM on human cathepsin K of 14%.
